Tested on: SREBP pathway
Assay: SREBP luciferase reporter gene system (SRE-luciferase assay) in Huh-7/SRE-Luc cells
Type: cell-based
Settings: Homo sapiens, sterol-deficient medium, compound treatment 16 hours, luciferase/GFP ratio
Protocol: Huh-7/SRE-Luc, a human hepatocellular carcinoma cell line, was grown in a culture medium containing DMEM, 10% fetal bovine serum, 100 units/mL penicillin, 100 µg/mL streptomycin, and 200 μg/mL G418.
The Huh-7/SRE-Luc cell line is a human hepatocellular carcinoma cell line Huh-7 stably expressing LDLR promoter-luciferase and green fluorescent protein (GFP). The LDLR promoter region contains a sterol regulatory element (SRE) that can effectively and sensitively respond to the regulation of the transcription factor SREBP. The GFP signal serves as an internal reference to indicate changes in cell number. Therefore, this cell line can be used to screen for active small molecules that regulate the SREBP signaling pathway. […] Cells were incubated in a sterol-deficient medium (5% lipoprotein-deficient serum, 2 μM Lovastatin, 10 μM mevalonate) and treated with corresponding concentrations of compounds for 16 hours. After compound treatment, the cells were lysed with lysis buffer (E397A, Promega), followed by the addition of luciferase substrate (E1500, Promega). The SRE-driven luciferase activity was measured using a BioTek Synergy HTX microplate reader (including but not limited to this type of instrument). The fluorescence intensity of enhanced green fluorescent protein (EGFP) was also measured using the BioTek microplate reader (including but not limited to this type of instrument) and used as an internal reference. The ratio of SRE-driven luciferase activity to GFP fluorescence intensity was used as an indicator of SREBP pathway activity. The test data of each test compound was analyzed using Prism software to obtain the IC50 parameter of the compound.
The inhibitory effect of the compounds of the present disclosure on the SREBP pathway was tested by the method of bioassay example 2. The concentration gradient of each compound was designed as 0.01, 0.03, 0.1, 0.3, 1.0, 3.0, and […], with DMSO as a vehicle control.

SMILES | IC50
C[C@H](CCCC(C)(C)O)[C@H]1CC[C@H]2[C@@H]3CC(=O)[C@H]4C[C@@H](O)CC[C@]4(C)[C@H]3CC[C@]12C [compound 255, 3P,25-dihydroxy-5α-cholest-6-one] | 0.452 µM
C[C@H](CCCC(C)(C)O)[C@H]1CC[C@H]2[C@@H]3CCC4(F)C[C@@H](O)CC[C@]4(C)[C@H]3CC[C@]12C (stereo partly drawn) [compound 266, 5-fluorocholest-3β,25-diol] | 0.176 µM
C[C@H](CCN(C)C(=O)c1ccccc1F)[C@H]1CC[C@H]2[C@@H]3CC[C@H]4C[C@@H](O)CC[C@]4(C)[C@H]3CC[C@]12C [compound 268, 2-fluoro-N-[(3R)-3-[(1R,3aS,3bR,5aS,7S,9aS,9bS,11aR)-7-hydroxy-9a,11a-dimethylhexadecahydro-1H-cyclopenta[1,2-a]phenanthren-1-yl]butyl]-N-methylbenzamide] | 0.825 µM
C[C@H](CCCC(O)c1ccccc1F)[C@H]1CC[C@H]2[C@@H]3C(=O)C[C@H]4[C@@H](O)[C@@H](O)CC[C@]4(C)[C@H]3CC[C@]12C (stereo partly drawn) [compound 271, 24-[(2-fluorophenyl)(hydroxy)methyl]-4β-hydroxy-3β-hydroxy-5α-cholan-7-one] | 0.139 µM
C[C@H](CCCC(C)(C)O)[C@H]1CC[C@H]2[C@@H]3C[C@H](O)[C@H]4[C@@H](O)[C@@H](O)CC[C@]4(C)[C@H]3CC[C@]12C [compound 272, 5α-cholest-3β,4P,6α,25-tetraol] | 20.1 µM
C[C@H](CCCC(C)(C)O)[C@H]1CC[C@H]2[C@@H]3CCC4(O)C(=O)[C@@H](O)CC[C@]4(C)[C@H]3CC[C@]12C (stereo partly drawn) [compound 276, 3P,5,25-trihydroxycholest-4-one] | 0.522 µM
C[C@H](CCCC(C)(O)c1ccccc1F)[C@H]1CC[C@H]2[C@@H]3CC[C@H]4[C@@H](O)[C@@H](O)CC[C@]4(C)[C@H]3CC[C@]12C (stereo partly drawn) [compound 278, 24-[1-(2-fluorophenyl)-1-hydroxyethyl]-5α-cholan-3β,4β-diol] | 0.106 µM
C[C@H](CCCC(O)c1cc(F)cc(F)c1)[C@H]1CC[C@H]2[C@@H]3CC[C@H]4[C@@H](O)[C@@H](O)CC[C@]4(C)[C@H]3CC[C@]12C (stereo partly drawn) [compound 282, 24-[(3,5-difluorophenyl)(hydroxy)methyl]-5α-cholan-3β,4β-diol] | 0.117 µM
C[C@H](CCCC(C)(C)O)[C@H]1CC[C@H]2[C@@H]3/C(=N/O)C[C@H]4C[C@@H](O)CC[C@]4(C)[C@H]3CC[C@]12C [compound 285, [(1R,3aS,3bR,4E,5aS,7S,9aS,9bS,11aR)-7-hydroxy-1-[(2R)-6-hydroxy-6-methylheptan-2-yl]-9a,11a-dimethylhexadecahydro-1H-cyclopenta[1,2-a]phenanthren-4-ylidene]hydroxylamine] | 0.793 µM
C[C@H](CCCC(O)c1ccccc1C(F)(F)F)[C@H]1CC[C@H]2[C@@H]3CC[C@H]4[C@@H](O)[C@@H](O)CC[C@]4(C)[C@H]3CC[C@]12C (stereo partly drawn) [compound 286, 24-{hydroxy[2-(trifluoromethyl)phenyl]methyl}-5α-cholan-30,40-diol] | 0.575 µM
C[C@H](CCCC1(O)CC1)[C@H]1CC[C@H]2[C@H]3[C@H](CC[C@]12C)[C@@]1(C)CC[C@H](O)C[C@@H]1CC3(F)F [compound 288, (1R,3aS,5aR,7S,9aS,11aR)-4,4-difluoro-1-[(2R)-5-(hydroxycyclopropyl)pentan-2-yl]-9a,11a-dimethylhexadecahydro-1H-cyclopenta[1,2-a]phenanthrene-7-ol] | 0.308 µM
C[C@H](CCCC(O)c1c(F)cccc1F)[C@H]1CC[C@H]2[C@@H]3C(=O)C[C@H]4[C@@H](O)[C@@H](O)CC[C@]4(C)[C@H]3CC[C@]12C (stereo partly drawn) [compound 289, 24-[(2,6-difluorophenyl)(hydroxy)methyl]-4β-hydroxy-3β-hydroxy-5α-cholan-7-one] | 0.117 µM
CC(O)C1CC[C@@]2(C)[C@@H](CC[C@@H]3[C@@H]2CC[C@]2(C)[C@@H]([C@H](C)CCCC(C)(C)O)CC[C@@H]32)C1 (stereo partly drawn) [compound 290, 3-(1-hydroxyethyl)-5α-cholest-25-ol] | 0.699 µM
C[C@H](CCCC(C)(C)O)[C@H]1CC[C@H]2[C@@H]3CC[C@H]4C(F)(F)[C@@H](O)CC[C@]4(C)[C@H]3CC[C@]12C [compound 291, (1R,3aS,3bS,5aR,7S,9aR,9bS,11aR)-6,6-difluoro-1-[(2R)-6-hydroxy-6-methylheptan-2-yl]-9a,11a-dimethylhexadecahydro-1H-cyclopenta[1,2-a]phenanthrene-7-ol] | 0.065 µM
C[C@H](CCCC(C)(C)O)[C@H]1CC[C@H]2[C@@H]3CC[C@H]4C[C@@H](OC(=O)CO)CC[C@]4(C)[C@H]3CC[C@]12C [compound 292, (1R,3aS,3bR,5aS,7S,9aS,9bS,11aR)-1-[(2R)-6-hydroxy-6-methylheptan-2-yl]-9a,11a-dimethylhexadecahydro-1H-cyclopenta[1,2-i]phenanthren-7-yl hydroxyacetate] | 0.171 µM
C[C@H](CCCC(C)(C)O)[C@H]1CC[C@H]2[C@@H]3CC[C@H]4C[C@@H](OC(=O)CC(=O)O)CC[C@]4(C)[C@H]3CC[C@]12C [compound 293, 3-{[(1R,3aS,3bR,5aS,7S,9aS,9bS,11aR)-1-[(2R)-6-hydroxy-6-methylheptan-2-yl]-9a,11a-dimethylhexadecahydro-1H-cyclopenta[1,2-a]phenanthren-7-yl]oxy}-3-oxopropanoic acid] | 0.136 µM
C[C@H](CCCC(C)(C)O)[C@H]1CC[C@H]2[C@@H]3CC[C@H]4C[C@@H](OC(=O)CCC(=O)O)CC[C@]4(C)[C@H]3CC[C@]12C [compound 294, 4-{[(1R,3aS,3bR,5aS,7S,9aS,9bS,11aR)-1-[(2R)-6-hydroxy-6-methylheptan-2-yl]-9a,11a-dimethylhexadecahydro-1H-cyclopenta[1,2-a]phenanthren-7-yl]oxy}-4-oxobutanoic acid] | 0.139 µM
C[C@H](CCCC(C)(C)O)[C@H]1CC[C@H]2[C@@H]3C[C@@H](N)[C@H]4[C@@H](O)[C@@H](O)CC[C@]4(C)[C@H]3CC[C@]12C [compound 295, 6-amino-5α-cholest-3β,4p,25-triol] | > 10 µM
C[C@H](CCCC(O)c1c(F)cccc1F)[C@H]1CC[C@H]2[C@@H]3C(N)C[C@H]4[C@@H](O)[C@@H](O)CC[C@]4(C)[C@H]3CC[C@]12C (stereo partly drawn) [compound 299, 7-amino-24-[(2,6-difluorophenyl)(hydroxy)methyl]-5α-cholan-3P,4β-diol] | 4.83 µM
C[C@H](CCCC(O)c1c(F)cccc1F)[C@H]1CC[C@H]2[C@H]3[C@H](CC[C@]12C)[C@@]1(C)CC[C@H](O)C(=O)[C@@H]1CC3(F)F (stereo partly drawn) [compound 301, (1R,3aS,3bS,5aR,7S,9aR,9bS,11aR)-1-[(2R)-6-(2,6-difluorophenyl)-6-hydroxyhexan-2-yl]-4,4-difluoro-7-hydroxy-9a,11a-dimethylhexadecahydro-1H-cyclopenta[1,2-α]phenanthren-6-one] | 0.04 µM
C[C@H](CCCC(C)(C)O)[C@H]1CC[C@H]2[C@@H]3CC[C@H]4[C@@H](N)[C@@H](O)CC[C@]4(C)[C@H]3CC[C@]12C [compound 303, 4-amino-5α-cholest-3β,25-diol] | 7.08 µM
CC(O)CCC[C@@H](C)[C@H]1CC[C@H]2[C@@H]3CC[C@H]4[C@@H](O)[C@@H](O)CC[C@]4(C)[C@H]3CC[C@]12C (stereo partly drawn) [compound 304, 24-(1-hydroxyethyl)-5α-cholan-3β,4β-diol] | 0.173 µM
C[C@H](CCCC(O)c1ccccc1)[C@H]1CC[C@H]2[C@@H]3CC[C@H]4[C@@H](O)[C@@H](O)CC[C@]4(C)[C@H]3CC[C@]12C (stereo partly drawn) [compound 305, 24-(hydroxyphenylmethyl)-5α-cholan-3β,4β-diol] | 0.119 µM
C[C@H](CCCC(C)(C)O)[C@H]1CC[C@H]2[C@@H]3CC[C@H]4CC(C)(O)CC[C@]4(C)[C@H]3CC[C@]12C (stereo partly drawn) [compound 307, 3-methylcholest-3,25-diol] | 0.588 µM
C[C@H](CCCC(C)(C)O)[C@H]1CC[C@H]2[C@@H]3CC[C@H]4CC(CO)CC[C@]4(C)[C@H]3CC[C@]12C (stereo partly drawn) [compound 308, 3-(hydroxymethyl)-5α-cholest-25-ol] | 0.979 µM
C[C@H](CCCC(C)(C)O)[C@H]1CC[C@H]2[C@@H]3CC[C@H]4CC(C(=O)O)CC[C@]4(C)[C@H]3CC[C@]12C (stereo partly drawn) [compound 309, 25-hydroxy-5α-cholest-3-carboxylic acid] | 8.96 µM
C[C@H](CCCC(C)(C)O)[C@H]1CC[C@H]2[C@@H]3CC[C@H]4CC(NS(C)(=O)=O)CC[C@]4(C)[C@H]3CC[C@]12C (stereo partly drawn) [compound 310, N-[(1R,3aS,3bR,9aS,9bS,11aR)-1-[(2R)-6-hydroxy-6-methylheptan-2-yl]-9a,11a-dimethylhexadecahydro-1H-cyclopenta[1,2-a]phenanthrene-7-yl]methanesulfonamide] | 1.41 µM

— US20250154193A1, “STEROID COMPOUND, AND PREPARATION METHOD THEREFOR AND APPLICATION THEREOF” (CHOLESGEN (SHANGHAI) CO., LTD., priority 2022, published 2025)
